What was measured:
[1] = Neurotoxicity assay: MTS viability of primary cortical neuronal cultures; format: cell-based, mouse; conditions: BL6Jx129sv, mouse, primary cortical neuronal cultures, Neuronal cells, read-out: Cytotoxicity (% viable at 1 and 10 uM); for viability at 4 days, 1 uM: test compound 1 uM; for viability at 4 days, 10 uM: test compound 10 uM
[2] = Mice plasma concentration; format: in vivo; conditions: for Mice plasma concentration: presence in plasma at one or two time points (between 30 min and 4 h)
[3] = Blood brain barrier penetration (brain:plasma ratio after IV dose); format: in vivo; conditions: nominal dose 5 mg/kg, male Swiss Outbred mice
Method: A bolus injection of each of the test compound (50 μL of a 3 mg/mL aqueous solution containing 40% propylene glycol and 10% ethanol) was administered by tail vein injection to male Swiss Outbred mice (5-7 weeks of age).
At 5 and 60 min post-dose (n=3 mice at each time point), blood was collected by cardiac puncture and the whole brain was removed by making an incision through the back of the skull. Mice were anaesthetised approximately 3-4 min prior to blood and brain harvest with an intraperitoneal injection of ketamine and xylazine (133 mg/kg and 10 mg/kg, respectively).
The whole brain was placed into preweighed polypropylene vials and stored at −20° C. until analysis. On the day of analysis, the whole brain was homogenised in 3 parts of water (on ice to reduce the potential for ex vivo brain degradation) and an aliquot of the brain homogenate and plasma was analysed for compound concentration by LCMS. Standards were prepared by spiking blank brain homogenate and both samples and standards were processed by adding acetonitrile to the tissue homogenate, centrifuging and injecting an aliquot of the supernatant onto the LCMS.
To ensure complete recovery of compound from the brain, brain homogenate was spiked with compound (in 50% acetonitrile:50% water) to a nominal concentration of 500 ng/mL. The concentration of compound in the supernatant was then determined by LCMS and compared to the supernatant concentration when compound was added following precipitation with acetonitrile.

[4] = Cytotoxicity: viability of M17 cells; conditions: human, M17 neuroblastoma cells, Cytotoxicity (% viable at 1 and 10 uM); for viability at 1 uM: test compound 1 uM; for viability at 10 uM: test compound 10 uM
[5] = In vivo toxicity, visual observations; conditions: 30 mg/kg, number of days
[6] = E Log D (chromatographic method, pH 7.4); format: physicochemical
Method: Effective Log D values were measured using a chromatographic method employing a SUPELCOSIL LC-ABZ column using an octanol saturated mobile phase at pH 7.4. See F. Lombardo et al, J. Med. Chem. 2000, 43, 2922-2928.

[7] = Phase I safety and tolerability in healthy volunteers; format: in vivo, human
Method: Compound B was administered to healthy volunteers in a 2-part study comprising single dose administration (Stage A) and multidose administration (Stage B).
The objectives of the Phase I trials were to determine the safety, tolerability and pharmacokinetics of single and multiple oral doses of Compound B in healthy volunteers. The double-blind studies were conducted at a Phase I unit in The Netherlands. The protocol included safety measures designed to capture the potential human adverse effects. A total of 65 healthy subjects have been exposed to doses of Compound B (41 single dose, 24 multiple dose).
In Stage A, fifty five (55) healthy male subjects aged 18-50 years were randomised (3:1) to receive a single oral dose of either placebo or Compound B at one of 7 dose levels (25, 50, 100, 200, 300, 500 or 800 mg).
In Stage B, thirty two (32) healthy male and female subjects aged 45-75 years (eight subjects per dose level) were randomised (3:1) to receive a daily oral dose over 7 consecutive days of either placebo or Compound B at one of 4 dose levels (200, 400, 600 or 800 mg). Each dose level comprised of 4 males and 4 females; the randomisation schedule ensuring that 1 subject/sex received placebo and 3 subjects/sex received Compound B.

[8] = tested on: M17 human neuroblastoma cells; experiment: Cytotoxicity: viability of M17 cells
in vitro = conditions: human, Cytotoxicity (% viable at 1 and 10 uM)
[9] = tested on: primary cortical neuronal cultured cells; experiment: Neurotoxicity assay: MTS viability of primary cortical neuronal cultures; format: cell-based, mouse
[10] = one or two time points (between 30 min and 4 h)

| Compound | viability at 4 days, 1 uM [1] [%] | viability at 4 days, 10 uM [1] [%] | Mice plasma concentration [2] | B:P Ratio ([3]; 5 min post dose) | B:P Ratio ([3]; 60 min post dose) | viability at 1 uM [4] [%] | viability at 10 uM [4] [%] | Toxicity at 30 mg/kg [5] | other results |
| --- | --- | --- | --- | --- | --- | --- | --- | --- | --- |
| O=c1c2c(Cl)cc(Cl)c(O)c2ncn1Cc1ccccn1 | 99 | 98 | Up to 984 ng/mL | 0.16 | 0.10 | 102 | 98.9 | 10 days, none |  |
| CCCc1cnc2c(O)c(I)ccn2c1=O |  |  | Up to 11742 ng/ml ng/mL | 0.02 | 0.03 | 80.8 | 47.6 | 10 days, none |  |
| O=c1c2c(Cl)cc(Cl)c(O)c2ncn1-c1ccc(F)cc1 | 98 | 67 |  |  |  | 93.2 | 47.3 | 5 days, none | ElogD (E) [6]: 5.32; Mice plasma concentration in Tg mice [2, 10]: Up to 120 ng/mL in Tg mice |
| Cc1noc(C)c1Cn1cnc2c(O)c(Cl)cc(Cl)c2c1=O | 99 | 72 | Up to 3644 ng/mL | 0.18 | 0.08 | 104 | 76 | 10 days, none |  |
| CN(C)Cc1ccc2c(Cl)cc(Cl)c(O)c2n1 [Compound B] |  |  |  |  |  |  |  |  | incidence of adverse events ([7]; Stage A, single oral dose 25-800 mg, healthy male volunteers aged 18 to 50 years): 43.9%; tolerability ([7]; Stage A, single oral dose, healthy male volunteers aged 18 to 50 years): well tolerated; tolerability ([7]; Stage B, daily oral dose over 7 days (200-800 mg), healthy subjects aged 45-75 years): generally well tolerated |
| O=c1c2c(Cl)cc(Cl)c(O)c2ncn1-c1ccccn1 [drawing 288] |  |  | Up to 144.2 ng/mL |  |  |  |  | 10 days, none | Cytotoxicity (% viable at 1 and 10 uM) ([8]; test compound 1 uM): 107.8%; Cytotoxicity (% viable at 1 and 10 uM) ([8]; test compound 10 uM): 89.2% |
| Cc1nc(Cn2cnc3c(O)c(Cl)cc(Cl)c3c2=O)cs1 | 100 | 93 | Up to 2439 ng/mL | 0.10 at 5 min, 0.10 at 60 min | 0.10 at 5 min, 0.10 at 60 min | 97 | 95.7 | 10 days, none |  |
| O=c1c2c(Cl)cc(Cl)c(O)c2ncn1C1CC1 | 91 | 77 | Up to 5000 ng/mL | 0.26 | 0.24 | 105 | 72 | 10 days, none |  |
| CN(C)Cc1ccc2c(Cl)cc(Cl)c(O)c2n1.Cl [drawing 119] | 84 | 72 | Up to 500 ng/ml ng/mL | 12.85 | 9.45 | 94 | 54.3 | None |  |
| O=c1c2cccc(O)c2ncn1Cc1cn2ccccc2n1 |  |  |  |  |  |  |  |  | viability at 1 uM (in vitro): 95%; viability at 10 uM (in vitro): 98.4% |
| O=c1c2c(Cl)cc(Cl)c(O)c2ncn1CC1CC1 | 116 | 105 | Up to 2698 ng/mL | 0.12 | 0.07 | 96.2 | 76.8 | 11 days, none |  |
| Oc1c(I)cc(Cl)c2cccnc12 | 90 | 77 | Up to 700 ng/mL | 0.20 | 0.17 | 107 | 72.7 | none | ElogD (E) [6]: 1.85 |
| CCC(C)n1cnc2c(O)c(Cl)cc(Cl)c2c1=O (stereo not shown) [drawing 189] |  |  | Up to 2949 ng/mL |  |  |  |  | 10 days, none | Cytotoxicity (% viable at 1 and 10 uM) ([9]; test compound 1 uM): 94%; Cytotoxicity (% viable at 1 and 10 uM) ([9]; test compound 10 uM): 67%; Cytotoxicity (% viable at 1 and 10 uM) ([8]; test compound 1 uM): 99.2%; Cytotoxicity (% viable at 1 and 10 uM) ([8]; test compound 10 uM): 68.6% |
| Cn1cnc(CCNC(=O)c2ccc3c(Cl)cc(Cl)c(O)c3n2)c1 | 93 | 88 | Up to 11605 ng/mL | 0.06 | 0.20 | 108 | 82.6 | 10 days, none |  |
| Br.CCN(CC)CCn1cnc2c(O)c(Cl)cc(Cl)c2c1=O | 107 | 77 |  |  |  | 100 | 70.3 | 10 days, none | Mice plasma concentration (single dose) ([2]; single dose, one or two time points (between 30 min and 4 h)): Up to 113.2 ng/mL (single dose) |
| Oc1c(N2CCOCC2)ncc2cccnc12 | 104 | 98 |  |  |  | 112 | 93.7 | 10 days, mild toxic signs | ElogD (E) [6]: 1.45; Mice plasma concentration in Tg mice [2, 10]: Below 80 ng/mL in Tg mice |
| O=c1c2c(Cl)cc(Cl)c(O)c2ncn1Nc1ccc(F)cc1F | 100 | 92 | Up to 1,130.6 ng/mL |  |  | 105 | 83.1 | 10 days, none |  |
| O=c1c2ccc(I)c(O)c2ncn1CC1CC1 |  |  | Up to 2508 ng/mL | 0.07 | 0.06 | 111 | 65.1 | 10 days, none |  |

Reference: US20100069393A1, “METHOD OF TREATMENT AND AGENTS USEFUL FOR SAME” (PRANA BIOTECHNOLOGY LIMITED, priority 2006, published 2010)
